In US7101878B1 (Agouron Pharmaceuticals, Inc., priority 1998, dated 2006):
pEC50, pKi: −log10 of the molar value.

Legend:
rat GnRH receptor = molecular target: T1, rat GnRH receptor (Rattus norvegicus, UniProt P30969); test: Total inositol phosphates measurement, GGH3 cells; format: cell-based; conditions: PI (inositol phosphates)
T1 sequence (P30969 1-327): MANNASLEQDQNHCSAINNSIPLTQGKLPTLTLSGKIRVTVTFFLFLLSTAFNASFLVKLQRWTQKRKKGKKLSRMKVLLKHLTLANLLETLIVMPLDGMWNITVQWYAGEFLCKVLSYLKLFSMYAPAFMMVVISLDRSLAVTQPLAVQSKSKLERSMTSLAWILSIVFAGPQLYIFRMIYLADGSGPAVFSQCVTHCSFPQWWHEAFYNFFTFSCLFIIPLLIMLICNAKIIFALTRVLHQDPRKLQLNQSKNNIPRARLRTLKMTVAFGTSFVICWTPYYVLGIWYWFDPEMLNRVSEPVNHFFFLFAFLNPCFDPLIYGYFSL
Description: In another test, accumulation of total inositol phosphates may be measured by formic acid extraction from cells, followed by separation of the phosphates on Dowex columns. Cells are split using trypsin into two 12-well plates and pre-labeled with ^3H-myoinositol ([…]-2 mCi per mL) for 16-18 hours in inositol-free medium. The medium is then aspirated and the cells rinsed with either 1×HBSS, 20 mM HEPES (pH 7.5), or serum-free DMEM, 1×HBSS, 20 mM HEPES (pH 7.5) containing agonist, and 20 mM LiCl is then added and the cells are incubated for the desired time. The medium is aspirated and the reaction stopped by addition of ice-cold 10 mM formic acid, which also serves to extract cellular lipids. […] The columns are then washed with 10 mL of […] sodium formate and 5 mM borax, and total inositol phosphates are eluted with 4.5 mL 1M ammonium formate, 0.1M formic acid.
These cells have been extensively characterized previously (Kaiser et al., 1997). These cells were grown in low glucose Dulbecco's modified Eagle's medium (DMEM) containing: 100U/mL penicillin/streptomycin, 0.6 g/L G418 and 10% beat-inactivated fetal bovine serum
This cell line was provided by Dr. Stuart Sealfon, Mount Sinai Medical School New York, N.Y. These cells were grown in DMEM supplemented with 0.2 g/L G418 100 U/ml penicillin/streptomycin and 10% FBS. […]

[1] = test system: testosterone levels in intact male rats; test: Intact male rat, testosterone suppression; format: in vivo
Source text: Testosterone is a hormone regulated by the hypothalamic-pituitary-gonadal axis. GnRH is secreted in pulses from the hypothalamus and stimulates the anterior pituitary gland to release gonadotropic hormones LH and FSH. Testosterone is produced when the testes are stimulated by LH. The quantity of testosterone secreted increases approximately in direct proportion to the amount of LH available (Guyton, 1986).
Male Sprague-Dawley (250-275 g) rats were single-housed and allowed to acclimate for 1 week prior to study. On study day animals were dosed with vehicle or test compound by various routes of administration, including ip, sc, or po. Blood samples were obtained via cardiac puncture under halothane anesthesia from individual animals at predetermined time points post treatment. Blood samples were drawn into heparin containing tubes. Blood was centrifuged immediately, plasma collected and stored in −20° freezer until assayed. Plasma samples were analyzed using DSL-4000 ACTIVE Testosterone coated-tube raduioimmunoassay kit from Diagnostic Systems Laboratories, Inc.
Male Sprague-Dawley (250-275 g) rats were single-housed and allowed to acclimate for 1 week prior to study. We developed a technique to allow for repeated sampling from the jugular vein by using microrenathane (MRE) catheters implanted 7 days prior to study. Details of the surgical procedure have been described previously {Harms and Ojeda, 1974}. On study day, animals were allowed to acclimate to the procedure room while residing in their home cage. Basal blood samples were drawn from all animals. Immediately following basal sampling, vehicle or test compounds were administered by various routes. The routes of administration employed were intravenous (iv), intramuscular (im), and oral (po). Blood samples were drawn into heparin containing tubes at multiple time points post treatment. Blood was centrifuged immediately, plasma collected and stored in −20° freezer until assayed. Plasma samples were analyzed using DSL-4000 ACTIVE Testosterone coated-tube raduioimmunoassay kit from Diagnostic Systems Laboratories, Inc.
Male Sprague-Dawley (250-275 g) rats were double-housed and allowed to acclimate for 1 week prior to study. Daily vehicle treatments were administered either, im, sc, or po between 8:00 and 9:00 am for seven days. On day 8 between 8:00 and 9:00 am, blood samples were drawn via cardiac puncture under halothane anesthesia. The procedure was complete in 45-60 seconds. Over the next 7 days one groups of animals continued to receive vehicle treatments while another group of animals received no treatment. Samples were collected as described above following the 7th day of this treatment regimen. Testosterone levels were not different between vehicle treated animals and untreated animals.
Daily im dosing of Compound 134 (100 mg/kg) or vehicle was performed between 8:00 and 9:00 am for seven days. Samples were collected as described above following the 7th day of treatment.
All blood samples were collected in heparin containing tubes. Blood was centrifuged immediately, plasma collected and stored in −20° freezer until assayed the next day. Plasma samples were analyzed using DSL-4000 ACTIVE Testosterone coated-tube raduioimmunoassay kit from Diagnostic Systems Laboratories, Inc.

Oxytocin = Oxytocin (Homo sapiens, UniProt P30559); test: biochemical
Oxytocin, sequence (P30559 whole entry): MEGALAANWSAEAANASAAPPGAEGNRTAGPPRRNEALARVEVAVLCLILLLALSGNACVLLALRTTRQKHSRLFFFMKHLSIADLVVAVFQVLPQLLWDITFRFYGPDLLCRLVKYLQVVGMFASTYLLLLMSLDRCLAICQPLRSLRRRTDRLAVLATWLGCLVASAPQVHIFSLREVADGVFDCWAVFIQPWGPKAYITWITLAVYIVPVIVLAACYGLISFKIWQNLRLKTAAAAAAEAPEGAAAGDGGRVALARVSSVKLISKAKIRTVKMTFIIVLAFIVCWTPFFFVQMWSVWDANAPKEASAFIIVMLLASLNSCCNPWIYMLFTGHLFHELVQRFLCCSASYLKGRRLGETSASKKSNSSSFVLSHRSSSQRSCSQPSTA

AT1 Angiotensin = AT1 Angiotensin (Homo sapiens, UniProt P30556); test: biochemical
AT1 Angiotensin, sequence (P30556 whole entry): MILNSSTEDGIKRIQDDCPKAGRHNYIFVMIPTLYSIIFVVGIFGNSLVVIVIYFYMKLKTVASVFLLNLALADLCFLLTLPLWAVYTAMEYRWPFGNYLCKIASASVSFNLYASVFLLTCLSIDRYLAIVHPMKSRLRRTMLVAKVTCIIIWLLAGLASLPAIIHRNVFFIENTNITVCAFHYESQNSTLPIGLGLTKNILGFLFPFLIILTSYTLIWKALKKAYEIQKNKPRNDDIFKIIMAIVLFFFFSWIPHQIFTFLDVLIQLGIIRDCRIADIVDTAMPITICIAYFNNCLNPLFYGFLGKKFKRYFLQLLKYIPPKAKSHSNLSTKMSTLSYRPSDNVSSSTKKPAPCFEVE

CCKA = CCKA (Homo sapiens, UniProt P32238); test: biochemical
CCKA, sequence (P32238 whole entry): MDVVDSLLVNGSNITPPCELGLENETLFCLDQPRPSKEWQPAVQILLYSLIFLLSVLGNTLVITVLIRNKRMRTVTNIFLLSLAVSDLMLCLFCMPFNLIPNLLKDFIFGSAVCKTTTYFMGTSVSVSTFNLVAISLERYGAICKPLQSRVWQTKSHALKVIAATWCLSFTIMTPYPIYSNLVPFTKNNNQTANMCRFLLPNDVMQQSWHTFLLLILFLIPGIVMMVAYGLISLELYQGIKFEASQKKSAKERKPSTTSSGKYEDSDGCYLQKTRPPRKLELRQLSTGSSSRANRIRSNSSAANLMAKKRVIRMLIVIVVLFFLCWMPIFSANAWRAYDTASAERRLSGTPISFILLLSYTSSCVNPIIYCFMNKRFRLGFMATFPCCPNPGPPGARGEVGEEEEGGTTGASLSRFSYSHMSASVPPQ

NK1 = NK1 (Homo sapiens, UniProt P25103); test: biochemical
NK1, sequence (P25103 whole entry): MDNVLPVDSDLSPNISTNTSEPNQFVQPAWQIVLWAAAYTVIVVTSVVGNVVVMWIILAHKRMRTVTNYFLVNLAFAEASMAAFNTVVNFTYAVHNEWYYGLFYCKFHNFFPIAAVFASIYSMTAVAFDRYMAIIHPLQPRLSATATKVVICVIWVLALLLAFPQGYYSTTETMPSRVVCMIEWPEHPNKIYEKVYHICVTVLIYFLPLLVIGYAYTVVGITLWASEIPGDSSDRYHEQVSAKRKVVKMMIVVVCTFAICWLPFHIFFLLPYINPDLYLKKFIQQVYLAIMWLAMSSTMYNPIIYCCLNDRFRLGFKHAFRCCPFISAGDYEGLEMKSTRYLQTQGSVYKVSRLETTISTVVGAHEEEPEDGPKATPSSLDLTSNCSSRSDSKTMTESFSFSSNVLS

NK3 = NK3 (Homo sapiens, UniProt P29371); test: biochemical
NK3, sequence (P29371 whole entry): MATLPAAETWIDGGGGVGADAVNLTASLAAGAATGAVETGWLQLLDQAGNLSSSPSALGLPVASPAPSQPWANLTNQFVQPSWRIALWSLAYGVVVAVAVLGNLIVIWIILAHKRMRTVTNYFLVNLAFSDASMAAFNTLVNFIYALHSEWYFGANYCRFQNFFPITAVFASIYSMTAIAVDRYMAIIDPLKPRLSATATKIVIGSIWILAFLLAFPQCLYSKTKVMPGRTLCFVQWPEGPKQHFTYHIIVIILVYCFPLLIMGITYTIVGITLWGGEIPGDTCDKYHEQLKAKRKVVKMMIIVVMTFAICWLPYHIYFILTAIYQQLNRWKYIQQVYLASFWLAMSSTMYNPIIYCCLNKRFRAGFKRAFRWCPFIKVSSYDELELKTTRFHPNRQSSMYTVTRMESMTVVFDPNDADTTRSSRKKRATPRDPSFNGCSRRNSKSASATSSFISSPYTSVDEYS

MAO-A = MAO-A (Homo sapiens, UniProt P21397); test: Selectivity: MAO-A
MAO-A, sequence (P21397 whole entry, species assumed): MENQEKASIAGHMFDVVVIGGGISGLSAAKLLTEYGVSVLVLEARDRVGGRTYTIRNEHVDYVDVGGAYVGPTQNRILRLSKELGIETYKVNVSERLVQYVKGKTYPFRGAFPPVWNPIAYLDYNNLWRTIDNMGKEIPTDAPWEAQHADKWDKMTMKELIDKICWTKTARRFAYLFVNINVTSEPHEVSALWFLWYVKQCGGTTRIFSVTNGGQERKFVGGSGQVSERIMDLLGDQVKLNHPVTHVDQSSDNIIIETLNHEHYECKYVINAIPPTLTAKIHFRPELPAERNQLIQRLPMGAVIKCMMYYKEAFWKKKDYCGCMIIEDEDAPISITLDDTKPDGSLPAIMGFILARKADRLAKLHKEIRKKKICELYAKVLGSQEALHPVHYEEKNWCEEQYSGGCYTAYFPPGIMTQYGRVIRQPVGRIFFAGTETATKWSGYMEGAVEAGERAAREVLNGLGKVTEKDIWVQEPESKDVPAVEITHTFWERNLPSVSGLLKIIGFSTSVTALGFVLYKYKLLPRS

M2 Muscarinic = M2 Muscarinic (Homo sapiens, UniProt P08172); test: Selectivity: M2 Muscarinic
M2 Muscarinic, sequence (P08172 whole entry): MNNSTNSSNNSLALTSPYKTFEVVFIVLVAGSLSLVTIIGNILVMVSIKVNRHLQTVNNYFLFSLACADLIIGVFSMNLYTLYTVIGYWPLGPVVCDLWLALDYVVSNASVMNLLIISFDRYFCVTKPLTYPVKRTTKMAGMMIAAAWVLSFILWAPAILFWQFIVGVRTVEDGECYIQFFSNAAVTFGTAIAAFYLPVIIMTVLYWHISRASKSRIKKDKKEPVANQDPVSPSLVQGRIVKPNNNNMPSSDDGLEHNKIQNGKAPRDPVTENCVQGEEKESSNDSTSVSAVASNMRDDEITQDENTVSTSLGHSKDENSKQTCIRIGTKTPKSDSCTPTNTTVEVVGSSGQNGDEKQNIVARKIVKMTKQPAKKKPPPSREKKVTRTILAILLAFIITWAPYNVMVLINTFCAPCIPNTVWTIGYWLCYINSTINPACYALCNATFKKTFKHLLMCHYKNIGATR

Serotonin Transporter = Serotonin Transporter (Homo sapiens, UniProt P31645); test: Selectivity: Serotonin Transporter
Serotonin Transporter, sequence (P31645 whole entry): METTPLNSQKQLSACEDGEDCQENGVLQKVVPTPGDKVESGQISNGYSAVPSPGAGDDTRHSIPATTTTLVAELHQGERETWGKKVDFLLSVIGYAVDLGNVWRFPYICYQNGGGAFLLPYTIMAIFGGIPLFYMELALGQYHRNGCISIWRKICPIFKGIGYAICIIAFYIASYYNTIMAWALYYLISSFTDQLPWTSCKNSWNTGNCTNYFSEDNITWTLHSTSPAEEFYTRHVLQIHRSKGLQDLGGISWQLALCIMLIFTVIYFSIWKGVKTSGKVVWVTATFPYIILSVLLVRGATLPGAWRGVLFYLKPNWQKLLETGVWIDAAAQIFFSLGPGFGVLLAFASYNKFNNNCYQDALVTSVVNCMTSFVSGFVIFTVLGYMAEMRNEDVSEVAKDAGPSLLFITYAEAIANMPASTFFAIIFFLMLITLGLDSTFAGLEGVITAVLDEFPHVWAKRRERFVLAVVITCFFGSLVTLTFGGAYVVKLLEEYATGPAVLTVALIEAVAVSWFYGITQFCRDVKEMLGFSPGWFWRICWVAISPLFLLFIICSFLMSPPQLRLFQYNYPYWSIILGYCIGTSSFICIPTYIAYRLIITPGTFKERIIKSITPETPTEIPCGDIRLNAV

rat mast cells = test: Selectivity: Basal Histamine Release (rat mast cells); conditions: Mast cell, read-out: Basal Histamine Release (rat mast cells) EC50

In the case of Cc1cc2c(cc1Cc1ccc(C(=O)NCc3cccc(CNc4ccnc(NC[C@@H]5CCCO5)n4)c3)o1)C(C)(C)CCC2(C)C [Compound 136], the Kb (rat GnRH receptor) was 0.0063 µM, the “% Testosterone suppression” value ([1]; 20 mg/kg ip) was 72% and the “Range of Plasma Conc.” value ([1]; 20 mg/kg ip) was 0.4 µM. The “Suppression Duration” value ([1]; 20 mg/kg ip) was 6 h, the “time of % Testosterone suppression” value ([1]; 20 mg/kg ip) was 6 h and the “% Testosterone suppression” value ([1]; 40 mg/kg po) was 46%. For the same compound, the “Range of Plasma Conc.” value ([1]; 40 mg/kg po) was 0.34 µM, the “Suppression Duration” value ([1]; 40 mg/kg po) was 4 h and the “time of % Testosterone suppression” value ([1]; 40 mg/kg po) was 4 h. For the same compound, the testosterone levels ([1]; 6 hours post ip injection, vs vehicle, p<0.05) was “suppressed testosterone levels”.
COc1cccc(OC)c1NC(=O)c1ccc(Cc2cc3c(cc2C)C(C)(C)CCC3(C)C)o1 [Compound 20] showed a pKi (Oxytocin) of under 6.00, a pKi (AT1 Angiotensin) of 5.30 to 5.52 and a pKi (CCKA) of under 6.00. It also gave a pKi (NK1) of under 6.00, a pKi (NK3) of 5.30 to 6.00 and a pKi (MAO-A) of under 6.00. It also gave a pKi (M2 Muscarinic) of under 6.00, a pKi (Serotonin Transporter) of under 6.00 and a pEC50 (rat mast cells) of under 5.00.
For COc1cc(OC)c(NC(=O)c2ccc(Cc3cc4c(cc3C)C(C)(C)CCC4(C)C)o2)c(OC)c1 [Compound 134], the “% Testosterone suppression” value ([1]; 20 mg/kg ip) was 36%, the “Range of Plasma Conc.” value ([1]; 20 mg/kg ip) was 0.2 µM and the “Suppression Duration” value ([1]; 20 mg/kg ip) was 4 h. For the same compound, the “time of % Testosterone suppression” value ([1]; 20 mg/kg ip) was 4 h, the “Range of Plasma Conc.” value ([1]; 20 mg/kg po, @ 1 hr) was 1.1 @ 1 hr μM and the “Range of Plasma Conc.” value ([1]; 20 mg/kg po, @ 2 hr) was 0.15 @ 2 hr μM. The “Range of Plasma Conc.” value ([1]; 20 mg/kg po, @ 4 hr) was 0.17 @ 4 hr μM, the “% Testosterone suppression” value ([1]; 50 mg/kg po) was 75% and the “Suppression Duration” value ([1]; 50 mg/kg po) was 8 h. The “time of % Testosterone suppression” value ([1]; 50 mg/kg po) was 4 h, the “% Testosterone suppression” value ([1]; 100 mg/kg im*, 7 days) was 80% and the “Suppression Duration” value ([1]; 100 mg/kg im*, 7 days) was 12 h. The “time of % Testosterone suppression” value ([1]; 100 mg/kg im*, 7 days) was 12 h, the “% Testosterone suppression” value ([1]; 100 mg/kg po) was 80% and the “Suppression Duration” value ([1]; 100 mg/kg po) was 12 h. For the same compound, the “time of % Testosterone suppression” value ([1]; 100 mg/kg po) was 6 h, the “% Testosterone suppression” value ([1]; 100 mg/kg sc) was 60% and the “Range of Plasma Conc.” value ([1]; 100 mg/kg sc) was 0.13 µM. For the same compound, the “Suppression Duration” value ([1]; 100 mg/kg sc) was 24 h, the “time of % Testosterone suppression” value ([1]; 100 mg/kg sc) was 24 h and the testosterone levels ([1]; 7 days of repeated treatment, 100 mg/kg im daily, p<0.05) was “significantly suppressed testosterone levels”. The testosterone levels ([1]; oral gavage, highest dose, 12 hour time course and 24 hour time point) was “suppressed testosterone throughout the course of the study”.
